Converted amounts (≈) assume the structure as drawn. The source made the active and inactive calls. No cut-off for these calls is given here.
Legend:
[1] = system: Candida albicans; experiment: Antifungal activity against Candida albicans 90028 ATCC assessed as inhibition of growth at 0.03 ug/ml after 48 hrs relative to control; format: functional
[2] = system: Candida albicans; experiment: Antifungal activity against Candida albicans 90028 ATCC assessed as inhibition of growth at 0.5 ug/ml after 48 hrs relative to control; format: functional
[3] = system: Candida albicans; experiment: Antifungal activity against Candida albicans 90028 ATCC assessed as inhibition of growth at 0.06 ug/ml after 48 hrs relative to control; format: functional
[4] = system: Candida albicans; experiment: Antifungal activity against Candida albicans 90028 ATCC assessed as decrease in turbidity after 48 hrs relative to control; format: functional
[5] = system: Candida albicans; experiment: Antifungal activity against Candida albicans 90028 ATCC assessed as inhibition of growth at 2 ug/ml after 48 hrs relative to control; format: functional
[6] = system: Candida albicans; experiment: Antifungal activity against Candida albicans 90028 ATCC assessed as inhibition of growth at 4 ug/ml after 48 hrs relative to control; format: functional
[7] = system: Candida albicans; experiment: Antifungal activity against Candida albicans 90028 ATCC assessed as inhibition of growth at 0.12 ug/ml after 48 hrs relative to control; format: functional
[8] = system: Candida albicans; experiment: Antifungal activity against Candida albicans 90028 ATCC assessed as inhibition of growth at 8 ug/ml after 48 hrs relative to control; format: functional
[9] = system: Candida albicans; experiment: Antifungal activity against Candida albicans 90028 ATCC assessed as inhibition of growth at 0.25 ug/ml after 48 hrs relative to control; format: functional
[10] = system: Candida albicans; experiment: Antifungal activity against Candida albicans 90028 ATCC assessed as inhibition of growth at 1 ug/ml after 48 hrs relative to control; format: functional
[11] = system: Candida albicans; experiment: Antifungal activity against Candida albicans 90028 ATCC assessed as inhibition of growth at 16 ug/ml after 48 hrs relative to control; format: functional
[12] = Cytotoxicity against african green monkey Vero cells assessed as reduction in cell viability at 64 to 256 ug/mL after 6 hrs by XTT assay; format: cell-based; conditions: chlorocebus sabaeus, read-out: INH
[13] = system: Candida albicans; experiment: Inhibition of Candida albicans with loss of one copy KEX2 allele and both copies of URA3 CNA2 mutant adhesion to the Caco-2 cell line; format: functional
[14] = system: Candida albicans; experiment: Inhibition of Wild type Candida albicans SC5314 adhesion to the Caco-2 cell line; format: functional
[15] = system: Candida albicans; experiment: Inhibition of Candida albicans kex delta CNA1 mutant adhesion to the Caco-2 cell line; format: functional, organism-based
[16] = system: Candida albicans; experiment: Inhibition of Candida albicans bioflim formation during Caco2 cell invasion assessed as sessile growth at 16 ug/ml after 18 hrs by confocal laser scanning microscopy; format: functional, organism-based; conditions: Caco-2
[17] = system: Candida albicans; experiment: Inhibition of Candida albicans 1008 adhesion to the Caco-2 cell line; format: functional
[18] = system: Candida albicans; experiment: Inhibition of Candida albicans with loss of both copies KEX2 allele and both copies of URA3 CNA4 mutant adhesion to the Caco-2 cell line; format: functional, organism-based
[19] = system: Candida albicans; experiment: Antifungal activity against Candida albicans 90028 ATCC assessed as reduction in 99% growth after 48 hrs relative to control; format: functional
[20] = system: Candida albicans; experiment: Inhibition of Candida albicans bioflim formation during Caco2 cell invasion assessed as lack of hyphea at 1 ug/ml after 18 hrs by confocal laser scanning microscopy; format: functional, organism-based; conditions: Caco-2
[21] = Cytotoxicity against african green monkey Vero cells assessed as reduction in cell viability at 4 to 32 ug/mL after 6 hrs by XTT assay; format: cell-based; conditions: chlorocebus sabaeus, read-out: INH
[22] = system: Nakaseomyces glabratus; experiment: Inhibition of Candida glabrate 1010 with kex2 delta mutant and functional TRP1 adhesion to the Caco-2 cell line; format: organism-based
[23] = system: Candida albicans; experiment: Inhibition of Candida albicans 1008 with trp1/kex2 delta mutant adhesion to the Caco-2 cell line; format: functional
[24] = system: Vero; experiment: Cytotoxicity against african green monkey Vero cells assessed as reduction in cell viability at 2 to 0.125 ug/mL after 6 hrs by XTT assay; format: cell-based; conditions: chlorocebus sabaeus
[25] = system: Candida albicans; experiment: Inhibition of wild type Candida albicans adherence to Caco2 cells at 16 ug/ml after 18 hrs; format: functional; conditions: Caco-2, 18 h

Compound | MIC [4] [mg/L] | inhibition at 0.03 µg/mL [1] [%] | inhibition at 0.5 µg/mL [2] [%] | inhibition at 0.06 µg/mL [3] [%] | inhibition at 2 µg/mL [5] [%] | inhibition at 4 µg/mL [6] [%] | inhibition at 0.12 µg/mL [7] [%] | inhibition at 8 µg/mL [8] [%] | inhibition at 0.25 µg/mL [9] [%] | inhibition at 1 µg/mL [10] [%] | inhibition at 16 µg/mL [11] [%] | also measured
CC(=O)OC(C)CCn1nnc(-c2ccccc2)n1 (racemic) | 4 (≈ 15.4 µM) | 98.9 | 98.9 | 98.9 | 98.9 | 99 | 98.9 | 99 | 99 | 98.9 | 98.8 | 
CC(=O)OC(C)CCn1nnc(-c2ccccc2Cl)n1 (racemic) | 4 (≈ 13.6 µM) | 98.9 | 98.9 | 98.9 | 98.9 | 99 | 98.9 | 99 | 98.9 | 98.9 | 98.9 | 
CC(=O)OC(C)Cn1nnc(-c2ccccc2Cl)n1 (racemic) |  | 98.9 | 99 | 98.9 | 99 | 99 | 99 | 99 | 99 | 99 | 99 | cytotoxicity at 6 h [12]: 13%; inhibition (INH) [13]: 91%; inhibition (INH) [14]: 86%; inhibition [15]: inactive; Activity [16]: inactive; inhibition (INH) [17]: 42.3%; inhibition [18]: inactive; MFC [19]: 0.0313 mg/L (≈ 0.112 µM); inhibition [20]: inactive; cytotoxicity at 6 h [21]: 4%; inhibition [22]: inactive; inhibition (INH) [23]: 82.89%; Activity [24]: Non-toxic; inhibition at 16 µg/mL [25]: 86%
CC(O)CCn1nnc(-c2ccccc2)n1 (racemic) | 0.125 (≈ 0.573 µM) | 98.8 | 99 | 98.9 | 98.9 | 99 | 99 | 98.9 | 99 | 99 | 98.9 | 

Second part, led by results:

MIC [4] [mg/L] | Compound | inhibition at 0.03 µg/mL [1] [%] | inhibition at 0.5 µg/mL [2] [%] | inhibition at 0.06 µg/mL [3] [%] | inhibition at 2 µg/mL [5] [%] | inhibition at 4 µg/mL [6] [%] | inhibition at 0.12 µg/mL [7] [%] | inhibition at 8 µg/mL [8] [%] | inhibition at 0.25 µg/mL [9] [%] | inhibition at 1 µg/mL [10] [%] | inhibition at 16 µg/mL [11] [%] | also measured
4 (≈ 14.6 µM) | CC(=O)OC(C)CCn1nnc(-c2ccc(C)cc2)n1 (racemic) | 98.9 | 98.9 | 98.9 | 99 | 99 | 98.9 | 99 | 99 | 98.9 | 98.9 | 
0.5 (≈ 1.92 µM) | CC(=O)OC(C)Cn1nnc(-c2ccc(C)cc2)n1 (racemic) | 98.7 | 99 | 98.9 | 99 | 99.1 | 99 | 99 | 98.9 | 99.1 | 99 | 
